Source: article PMC6934184, “Selective DNA-PKcs inhibition extends the therapeutic index of localized radiotherapy and chemotherapy” (The Journal of Clinical Investigation, 2019)

Molecular target: T1, CDK1/cyclin A2 (Homo sapiens, UniProt P06493)
T1 construct: purchased Thermo Fisher Scientific (Life Technologies) SelectScreen
Assay: SelectScreen LanthaScreen
Assay type: binding
Settings: 1 µM
Outline: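 SelectScreen broad panel; activity (Z'LYTE, Adapta) plus binding formats. ATP: Km app for CSF1R Z'LYTE; 10 for CAMK1 Adapta. Readout = % per kinase.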

T1 sequence (P06493 whole entry): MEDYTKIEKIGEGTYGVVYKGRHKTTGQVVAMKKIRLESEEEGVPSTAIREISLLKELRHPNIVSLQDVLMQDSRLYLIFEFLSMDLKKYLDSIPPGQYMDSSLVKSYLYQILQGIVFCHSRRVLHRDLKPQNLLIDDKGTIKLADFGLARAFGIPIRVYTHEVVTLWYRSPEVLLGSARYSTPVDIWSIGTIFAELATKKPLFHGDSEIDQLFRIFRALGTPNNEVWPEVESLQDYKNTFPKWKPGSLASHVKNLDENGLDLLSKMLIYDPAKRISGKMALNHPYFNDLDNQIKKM
T1 sequence (P20248 whole entry partner): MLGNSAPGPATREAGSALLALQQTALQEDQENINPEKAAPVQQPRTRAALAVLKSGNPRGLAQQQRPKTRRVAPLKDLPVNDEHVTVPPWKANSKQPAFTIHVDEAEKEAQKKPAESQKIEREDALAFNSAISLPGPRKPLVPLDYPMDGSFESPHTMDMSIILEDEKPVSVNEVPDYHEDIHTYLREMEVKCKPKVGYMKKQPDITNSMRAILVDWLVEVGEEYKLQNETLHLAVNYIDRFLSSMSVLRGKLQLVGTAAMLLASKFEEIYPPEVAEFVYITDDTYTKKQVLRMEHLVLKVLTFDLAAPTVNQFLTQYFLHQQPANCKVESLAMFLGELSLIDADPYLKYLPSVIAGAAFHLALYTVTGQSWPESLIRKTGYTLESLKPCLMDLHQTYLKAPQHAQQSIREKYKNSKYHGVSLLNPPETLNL

CN(C(=O)CN1CCOCC1)c1ccc2sc3c(-c4cccc5c(=O)cc(N6CC7CCC(C6)O7)oc45)cccc3c2c1 [NU5455]
% displacement: 3.3%
